In a melting point compilation (Tetko et al.; mined from patent text by program, amines drawn as free bases though some values may be those of a salt):

SMILES | melting point [°C]
Cc1c(C(=O)O)c(=O)cc(-c2ccccc2)n1C | 220 to 225
CCOC(=O)c1ccc(CN2CCN(C(=O)OC(C)(C)C)C(C(N)=O)C2)c(C(F)(F)F)c1 (stereo unspecified) | 124 to 125
CCN1CCN(C(=O)NC(C(=O)NC2C(=O)N(OCc3ccccc3)C2C)c2ccccc2)C(=O)C1=O (stereo unspecified) | 100 to 105
CC(C)N(Cc1ccc(C(F)(F)F)cc1)C(=O)C(Cl)Cl | 92 to 93
Cc1nc(NC(=N)N)sc1C(=O)Nc1cccc(OCC(=O)OC(C)(C)C)c1 | 204
COC(=O)c1ccc(NC2COC(=O)C2)cc1 (stereo unspecified) | 136 to 138
O=C(Nc1cccc2cnccc12)NC1CC2(CCOCC2)Oc2ccccc21 (stereo unspecified) | 220
CSc1cc2c(cc1C(F)(F)F)N(C(=O)Nc1cccc(C(=O)N(C)CCN(C)C)c1)CC2 | 140 to 141
CC#Cc1cn(C2OC(COC(C)=O)C(OC(C)=O)C2OC(C)=O)c(=O)[nH]c1=O (stereo unspecified) | 150 to 157
c1cnc(-c2n[nH]c(-c3cnccn3)n2)cn1 | 269 to 270
COC(=O)C(O)c1cc(F)cc(F)c1 (stereo unspecified) | 61.8
O=P(O)(O)Cc1ccccc1CP(=O)(O)O | > 300
CCc1nc2c(cnn2CC)c(NC2CCOCC2)c1CNC(=O)c1cccc(C(=O)NCc2ccc(F)c(-c3cccc(CN4CC5CC4CN5)c3)c2)c1 (stereo unspecified) | 129 to 133
COC(=O)COc1ccc2cc(-c3cnc(Cc4ccc5ccccc5c4)o3)ccc2c1 | 147 to 149
CCCCOc1c(N)c(=O)c1=O | 166 to 168
OC(Cc1nnn[nH]1)(Cn1cncn1)c1ccc(Cl)cc1Cl (stereo unspecified) | 214 to 215
CCCN1C(=O)C2CC(c3ccc([N+](=O)[O-])cc3)(C2)C1=O | 149 to 151
O=C(O)CCc1cnoc1-c1ccc(F)c(F)c1 | 102 to 103
O=c1cnn(-c2ccc(C(c3ccc(Cl)cc3)c3cc(-c4ccccc4)cs3)c(Cl)c2)c(=O)[nH]1 (stereo unspecified) | 90
C#CCOc1ccc(CCNC(=O)C(=NOC)c2ccc(Cl)c(Cl)c2)cc1OC | 107 to 108
CSc1ncncc1C1c2c(F)cccc2CC1(C)C (stereo unspecified) | 81 to 82
CNCCNC(=O)c1nc(Cl)c(N)nc1N | 142 to 143
O=C(Cn1cc[nH]c(=O)c1=O)OC(c1ccccc1)c1ccccc1 | 97 to 98
Nc1cccc2cc(-c3ccccn3)[nH]c12 | 165 to 166
C#CCOc1ccc(C(=O)O)c(C2=NC(=O)C(C)(C(C)C)N2)n1 (stereo unspecified) | 195 to 198
O=C(O)C1=CC(CF)(CF)Oc2ccc(Cl)cc21 | 151 to 152

SMILES | melting point [°C]
c1ccc(Oc2ccc(-c3nc(-c4ccccc4)c(-c4ccccc4)o3)cc2)cc1 | 125 to 126
CCCCCC12CCC(C(=O)O)(CC1)CC2 | 160
CSc1nnc(SC)c2cc(-c3ccccc3)ncc12 | 155
Cc1ccc(S(=O)(=O)N2CCC(Sc3ccc(F)cc3)CC2)cc1 | 131 to 132
CC12CC(N3CCOCC3)C(O)CC1CCC1C2CCC2(C)C(O)C(N3CCCCC3)CC12 (stereo unspecified) | 222 to 229
O=C(NCc1ccccc1)c1cn2c(=O)n(Cc3ccc(Cl)cc3)c(=O)cc2s1 | > 220
COC(=O)c1cc2nc(-c3ccccc3)nn2cc1F | 162 to 168
CCOC(=O)c1c(Cl)nn(-c2c(Cl)cc(C(F)(F)F)cc2Cl)c1N | 143 to 146
CCOC(=O)c1cnc2cn[nH]c2c1Nc1ccsc1 | 174 to 175
Cc1c(Cc2cccc(C(F)(F)F)c2)sc2c(-c3cccc(C(=O)NCCOC(C)C)c3)cccc12 | 121 to 122
CCCCCCCCCCCCCCCCN=C=O | 107 to 109
Cc1cc(CCC[C@H](CC(=O)OC(C)(C)C)C(=O)N[C@H](C(=O)O)C(C)(C)C)ccc1-c1ccccc1 | 51 to 56
Cc1nc(-c2ccc(C#N)cc2)oc1C(=O)NCCCCN1CCC(c2ccc3c(c2OCCO)CCCC3)CC1 | 109 to 111
CCC1(C)CC2(NC(=O)N(C)C2=O)C(C)C(C)(CC)N1 (stereo unspecified) | 137 to 142
CCCCCC1OCc2cc(C(=O)O)ccc2O1 (stereo unspecified) | 148
COc1ccc(-c2oc(C(F)(F)F)nc2-c2ccc(S(N)(=O)=O)cc2)cc1F | 150 to 151
COc1ccc(/C=C/S(=O)(=O)Nc2ccc(S(N)(=O)=O)cc2)cc1 | 181 to 183
CCOC(=O)c1cn(CCF)c2c(F)c(C(C)=O)c(F)cc2c1=O | 155 to 156
COc1cc2c(cc1OC)[C@@H](c1ccc([N+](=O)[O-])cc1)NN(C1=NC(=O)CS1)[C@@H](C)C2 | 238 to 239
NC(=O)CNC(=O)c1cccc(-c2ccc(F)c3cc(Cc4cccc(C(F)(F)F)c4)sc23)c1 | 157 to 158
CN(C)S(=O)(=O)c1ccc2c(c1)S(=O)(=O)NC(C(F)(F)F)=N2 | 240 to 242
COc1cc(Br)c([N+](=O)[O-])cc1OC | 120 to 122
CCCC=CCOc1ccc(C(C)(C)CC(C)(C)C)cc1-n1nc2ccccc2n1 | 80 to 81
Cn1cc(-c2ccccc2)c(=O)c(-c2ccccc2Cl)c1 | 145
CCCCN(CCCC)C(=N)c1ccc(-c2ccc([N+](=O)[O-])cc2)o1 | 100 to 101
CCCC(C1CCCCC1)n1cncc1C(=O)O (stereo unspecified) | 202

SMILES | melting point [°C]
CC1=CC(C)(C)N2C(=O)C(=O)c3cc(C)cc1c32 | 157 to 161
CC(=O)Oc1ccc(S(=O)(=O)Cl)cc1N=NC(C(C)=O)C(=O)Nc1ccccc1 (stereo unspecified) | 225 to 226
COC1(c2cc(F)cc(CC#COC#CCc3cc(F)cc(C4(OC)CCOCC4)c3)c2)CCOCC1 | 75 to 77
CN(CCc1cccs1)C(=O)C12CC3CC(CC(C3)C1)C2 | 95 to 99
O=C(NCc1ccccc1-c1ccccc1C(=O)NCCc1ccccn1)OCc1ccccc1 | 140
C=Cc1ccc(CC(=O)O)cc1 | 94
COc1cccc2ocnc12 | 72 to 74
C=CCc1cc(COC(=O)C(C)C)ccc1C#CC1(O)CN2CCC1CC2 (stereo unspecified) | 68
C=CCN1CC(C)N(C(c2ccsc2)c2cccc(O)c2)CC1C (stereo unspecified) | 140 to 142
COc1ccc2c(c1)c(/C=C/C(=O)c1ccncc1)cn2C | 178 to 182
CCCCCCCCC1(C)Cc2ccc(-c3nc4cc(CCCC)ccc4o3)cc2C1=O (stereo unspecified) | 93
CNC(=S)C1(c2cccnc2)CCCCC1=CCO (stereo unspecified) | 172 to 173
C#Cc1ccc(C2CCC(C3CCC(CCC)CC3)CC2)cc1 (stereo unspecified) | 71
Oc1ccc2oc(-c3ccc(O)c(Cl)c3)nc2c1 | 254 to 256
Cc1c(NC(=O)c2ccc(OC[C@@H]3CCCO3)cc2)ccc2[nH]c(CNC3CCCC3)cc12 | 191 to 192
CC(=O)c1ccc2ccn(S(=O)(=O)c3ccccc3)c2c1 | 160 to 163
CC(=O)OC1(C(C)=O)C(C)CC2C3CC(C)C4=CC(=O)C=CC4(C)C3(Br)C(O)CC21C (stereo unspecified) | 184 to 185
COc1cc(NC(=O)C#Cc2ccc(C(F)(F)F)cc2Cl)ccc1OCCN1CCC(OC)CC1 | 195 to 197
Nc1cc(C(=O)O)cc(OCc2ccc(Cl)cc2)c1C(=O)c1ccccc1 | 248 to 249
COc1ccc(Oc2nc(Nc3cccc(C(=O)O)c3)nc(Oc3ccc(C=O)cc3OC)n2)cc1 | 180 to 182
CC(=O)OCC12CCC(=O)C=C1CCC1C2CCC2(C)C(O)CCC12 (stereo unspecified) | 125 to 127
CCOC(=O)c1ccc2oc3ccc(OC)cc3c(=O)c2c1 | 170 to 172
COc1ccc(-c2nc(CN)no2)cc1 | 66 to 68
CCN(CC)C(=O)c1ccoc1-c1ccc(Cl)cc1 | 64 to 66
CCCCc1nc(SCCF)c(C(=O)OCC)n1Cc1ccc(-c2ccccc2C(=O)O)cc1 | 79
O=C(O)COc1cc(F)ccc1C(=O)NCc1nc2cc(C(F)(F)F)ccc2s1 | 206 to 208

SMILES | melting point [°C]
CC(=O)NCCSc1cc(N)c([N+](=O)[O-])cc1N | 162
COC(=O)CCC(=O)c1cc2c(=O)c3ccccc3ccc2s1 | 144 to 145
COc1cc2c(cc1Nc1ncc(Cl)c(Nc3ccccc3S(=O)(=O)C(C)C)n1)CCN(CC(=O)N(C)C)CC2 | 83 to 94
Cc1c(C)n(CC=CC(F)(F)F)c2c(OCc3ccccc3)nncc12 | 138 to 140
COc1ccc(C=CC(=O)O)cc1-c1cc2c(cc1OCCCO)C(C)(C)CCC2(C)C | 198 to 200
Cc1ccc(S(=O)(=O)Nc2ccc([N+](=O)[O-])cc2C)cc1 | 173 to 174
CNNC(=O)Nc1ncnc2cc(OC)c(OC)cc12 | 246 to 247
CSc1ncc(C=O)c(NC2CC2)n1 | 69.5 to 70
COc1ccc(CC#N)c2c1OCCO2 | 121 to 125
NC(C(=O)O)C(O)CC(=O)O (stereo unspecified) | 137 to 138
COc1ccc2c(c1)CCC1C2CCC2(C)C1CCC2N(C=O)CCN(C)C (stereo unspecified) | 98 to 100
O=c1c2ccc(Cl)cc2[nH]c2c(=O)n(-c3ccc(Cl)cc3)nc(O)c12 | > 400
CCNCC(=O)N1c2ccccc2NC(=O)c2c1c(C)cn2C | 175 to 176
CC(=O)Nc1ccc2nc(-c3ccccc3)cc(OCC(=O)N3CCOCC3)c2c1 | 261
O=C(O)c1cccc(-c2cccc3cc(Cc4cccc(F)c4)oc23)c1 | 135 to 136
CC(NC(=O)C1C(CO)N(Cc2ccccc2)C(=O)N1Cc1ccccc1)c1ccc2ccccc2c1 (stereo unspecified) | 170 to 175
Cn1c(-c2ccccc2Cl)nnc1-c1ccccc1Cl | 140
COc1ccc(/C=C/c2ccncc2)c2c1OC(C)(C)C2 | 110 to 113
CC(=O)Nc1ncc(Sc2nnc(C)s2)s1 | 242 to 244
O=C(O)/C=C/c1cncc(OCc2ccccc2)c1 | 140
CNC(=O)c1cccc(F)c1Nc1nc(Nc2ccc3c(c2)CCN(CCOC)CC3)ncc1Br | 99 to 105
CC(=O)N1CCN=C1Nc1cc(C)nn1C(C)C | 145 to 147
CC(C)n1nc(C#Cc2ccccc2F)ccc1=O | 84.5 to 86
